What was measured:
[1] = tested on: oligo-2: d(CGATGTACATCG)2; assay: Fluorescence titration; assay type: binding; details: 20 °C, pH 7.2
[2] = tested on: oligo-1: d(CGCGAATTCGCG)2; assay: Fluorescence titration; assay type: binding; details: 20 °C, pH 7.2
[3] = Behaviour of HCl salt in cell culture media; assay type: physicochemical

CCOc1ccc(-c2nc3ccc(-c4nc5ccc(N6CCN(C)CC6)cc5[nH]4)cc3[nH]2)cc1 [Hoechst 33342, reference compound]
Ka binding affinity with oligo-2 [1]: 5 × 10^6 M^1
Ka binding affinity with oligo-1 [2]: 2 × 10^7 M^–1

COc1ccc(OC)c(-c2nc3ccc(-c4nc5ccc(N6CCN(C)CC6)cc5[nH]4)cc3[nH]2)c1 [10c, 2′-(2,5-Dimethoxyphenyl)-6-(4-methylpiperazin-1-yl)-1H,3′H-2,5′-bibenzo[d]imidazole]
Ka binding affinity with oligo-2 [1]: 2 × 10^6 M^1
Ka binding affinity with oligo-1 [2]: 8 × 10^6 M^–1

CCCN1CCN(c2ccc3nc(-c4ccc5nc(-c6cc(OC)ccc6OC)[nH]c5c4)[nH]c3c2)CC1 [11c, 2′-(2,5-Dimethoxyphenyl)-6-(4-propylpiperazin-1-yl)-1H,3′H-2,5′-bibenzo[d]imidazole]
Ka binding affinity with oligo-2 [1]: 3 × 10^6 M^1
Ka binding affinity with oligo-1 [2]: 7 × 10^6 M^–1

CCOc1ccc(-c2nc3cc(-c4nc5cc(N6CCN(C)CC6)ccc5[nH]4)ccc3[nH]2)cc1OCC [10a, 2-(2-(3,4-Diethoxyphenyl)-1H-benzo[d]imidazol-5-yl)-5-(4-methylpiperazin-1-yl)-1H-benzo[d]imidazole]
Ka binding affinity with oligo-2 [1]: 2 × 10^6 M^1
Ka binding affinity with oligo-1 [2]: 7 × 10^6 M^–1

CCOc1ccc(-c2nc3ccc(-c4nc5ccc(N6CCN(CCN(C)C)CC6)cc5[nH]4)cc3[nH]2)cc1OCC [13a, 2-(4-(2′-(3,4-Diethoxyphenyl)-1H,3′H-[2,5′-bibenzo[d]imidazol]-6-yl)piperazin-1-yl)N,N-dimethylethan-1-amine]
Ka binding affinity with oligo-2 [1]: 2 × 10^6 M^1
behaviour of HCl salt in cell culture media [3]: precipitating in cell culture media
Ka binding affinity with oligo-1 [2]: 9 × 10^6 M^–1

CCCN1CCN(c2ccc3[nH]c(-c4ccc5[nH]c(-c6cc(OC)c(OC)c(OC)c6)nc5c4)nc3c2)CC1 [11d, 5-(4-Propylpiperazin-1-yl)-2′-(3,4,5-trimethoxyphenyl)-1H,1′H-2,5′-bibenzo[d]imidazole]
Ka binding affinity with oligo-2 [1]: 1 × 10^6 M^1

CCCCN1CCN(c2ccc3[nH]c(-c4ccc5[nH]c(-c6ccc(OCC)cc6)nc5c4)nc3c2)CC1 [12e, 5-(4-Butylpiperazin-1-yl)-2′-(4-ethoxyphenyl)-1H,1′H-2,5′-bibenzo[d]imidazole]
Ka binding affinity with oligo-2 [1]: 3 × 10^6 M^1
Ka binding affinity with oligo-1 [2]: 1 × 10^7 M^–1

CCCCN1CCN(c2ccc3nc(-c4ccc5nc(-c6cc(OC)ccc6OC)[nH]c5c4)[nH]c3c2)CC1 [12c, 6-(4-Butylpiperazin-1-yl)-2′-(2,5-dimethoxyphenyl)-1H,3′H-2,5′-bibenzo[d]imidazole]
Ka binding affinity with oligo-2 [1]: 2 × 10^6 M^1

COc1cc(-c2nc3ccc(-c4nc5ccc(N6CCN(CCN(C)C)CC6)cc5[nH]4)cc3[nH]2)cc(OC)c1OC [13d, 2-(4-(2′-(3,4,5-Trimethoxyphenyl)-1H,3′H-[2,5′-bibenzo[d]imidazol]-6-yl)piperazin-1-yl) N,N-Dimethylethan-1-amine]
Ka binding affinity with oligo-2 [1]: 1 × 10^6 M^1
behaviour of HCl salt in cell culture media [3]: precipitating in cell culture media
Ka binding affinity with oligo-1 [2]: 5 × 10^6 M^–1

COc1ccc(OC)c(-c2nc3ccc(-c4nc5ccc(N6CCN(CCN(C)C)CC6)cc5[nH]4)cc3[nH]2)c1 [13c, 2-(4-(2′-(2,5-Dimethoxyphenyl)-1H,3′H-[2,5′-bibenzo[d]imidazol]-6-yl)piperazin-1-yl)-N,N-dimethylethan-1-amine]
Ka binding affinity with oligo-2 [1]: 1 × 10^6 M^1
behaviour of HCl salt in cell culture media [3]: precipitating in cell culture media
Ka binding affinity with oligo-1 [2]: 5 × 10^6 M^–1

CCCCN1CCN(c2ccc3[nH]c(-c4ccc5[nH]c(-c6cc(OC)c(OC)c(OC)c6)nc5c4)nc3c2)CC1 [12d, 5-(4-Butylpiperazin-1-yl)-2-(2-(3,4,5-trimethoxyphenyl)-1H-benzo[d]imidazol-5-yl)-1H-benzo[d]imidazole]
Ka binding affinity with oligo-2 [1]: 4 × 10^6 M^1

CCCN1CCN(c2ccc3[nH]c(-c4ccc5[nH]c(-c6ccc(C(F)(F)F)cc6)nc5c4)nc3c2)CC1 [11b, 2-(4-(Trifluoromethyl)phenyl)-5-(5-(4-propylpiperazin-1-yl)-1H-benzo[d]imidazol-2-yl)-1H-benzo[d]imidazole]
Ka binding affinity with oligo-2 [1]: 2 × 10^6 M^1
Ka binding affinity with oligo-1 [2]: 7 × 10^6 M^–1

CN1CCN(c2ccc3[nH]c(-c4ccc5[nH]c(-c6ccc(C(F)(F)F)cc6)nc5c4)nc3c2)CC1 [10b, 5-(4-Methylpiperazin-1-yl)-2′-(4-(trifluoromethyl)phenyl)-1H,1′H-2,5′-Bibenzo[d]imidazole]
Ka binding affinity with oligo-2 [1]: 3 × 10^6 M^1
Ka binding affinity with oligo-1 [2]: 7 × 10^6 M^–1

— publication PMC8793051 (ACS Omega, 2022)
